Conditions: 343.14 K, Liquid, Vibrating tube method

CCCC(=O)OCC(COC(=O)CCC)(COC(=O)CCC)COC(=O)CCC [pentaerythritol tetrabutyrate]
Conditions	mass density [kg/m3]
773.4 kPa	1008.6
794.9 kPa	1008.7
818 kPa	1008.6
837.8 kPa	1008.5
863.2 kPa	1008.6
890.1 kPa	1008.8
913.7 kPa	1008.7
943.4 kPa	1008.7
969.3 kPa	1008.9
1002.1 kPa	1008.8
1036.5 kPa	1008.8
1072.5 kPa	1008.9
1104.2 kPa	1008.8
1144 kPa	1008.9
1187.1 kPa	1008.9
1225.3 kPa	1009
1274.2 kPa	1009
1324.7 kPa	1009
1369.5 kPa	1009.1
1428.4 kPa	1009.2
1489.8 kPa	1009.2
1539.7 kPa	1009.3
1615.7 kPa	1009.3
1656.6 kPa	1009.4
1676.8 kPa	1009.3
1697.6 kPa	1009.4
1715.3 kPa	1009.4
1736.3 kPa	1009.5
1758.3 kPa	1009.4
1780.4 kPa	1009.4
1799.6 kPa	1009.4
1823.1 kPa	1009.5
1842.9 kPa	1009.5
1866.6 kPa	1009.7
1891.8 kPa	1009.5
1912.6 kPa	1009.6
1937.9 kPa	1009.6
1964.7 kPa	1009.5
1987.2 kPa	1009.6
2014.1 kPa	1009.7
2042.2 kPa	1009.7
2065.8 kPa	1009.6
2094.8 kPa	1009.6
2125.5 kPa	1009.8
2150.1 kPa	1009.9
2180.8 kPa	1009.8
2213.3 kPa	1009.7
2247.3 kPa	1009.8
2275.2 kPa	1009.8
2308 kPa	1009.8
2336.8 kPa	1009.9
2371.5 kPa	1009.8
2407 kPa	1009.9
2443.3 kPa	1009.9
2474.7 kPa	1010
2513.3 kPa	1010.1
2553.2 kPa	1010
2587.6 kPa	1010.1
2629.4 kPa	1010
2672.7 kPa	1009.9
2711.2 kPa	1010.3
2794.1 kPa	1010.3
2887.4 kPa	1010.4
2936.4 kPa	1010.4
2979.8 kPa	1010.4
3032.3 kPa	1010.4
3076.5 kPa	1010.5
3130.6 kPa	1010.4
3186.2 kPa	1010.6
3242.9 kPa	1010.6
3291.4 kPa	1010.7
3352.4 kPa	1010.6
3413.6 kPa	1010.6
3465.5 kPa	1010.7
3526.7 kPa	1010.8
3578 kPa	1010.8
3651.6 kPa	1011
3705.3 kPa	1011
3789.3 kPa	1010.9
3822.9 kPa	1011.1
3911.1 kPa	1011.1
3990.2 kPa	1011.2
4072.1 kPa	1011.2
4144 kPa	1011.3
4183.8 kPa	1011.4
4214.1 kPa	1011.4
4417.6 kPa	1011.4
4449.7 kPa	1011.6
4486.8 kPa	1011.6
4507.9 kPa	1011.5
4727.5 kPa	1011.7
5057.9 kPa	1012.1
5072.9 kPa	1012.3
5076 kPa	1012
5110.6 kPa	1012.1
5117 kPa	1012.1
5126.9 kPa	1012.1
5150.9 kPa	1012.2
5159.4 kPa	1012.3
5175.5 kPa	1012.1
5176 kPa	1012.2
5178.4 kPa	1012.2
5180.5 kPa	1012.1
5180.7 kPa	1012
5182.4 kPa	1012.2
5183.8 kPa	1012.3
5184.3 kPa	1012.1
5185 kPa	1012.1
5185.2 kPa	1012.1
5185.5 kPa	1012.2
5186.2 kPa	1012.2
5187.3 kPa	1012.1
5188.5 kPa	1012.1
5189 kPa	1012.2
5189.9 kPa	1012.3
5190.4 kPa	1012.1
5205.3 kPa	1012.2
5219.3 kPa	1012.2
5228.9 kPa	1012.3
5236 kPa	1012.2
5238.3 kPa	1012.3
5248 kPa	1012.2
5250.1 kPa	1012.2
5252.5 kPa	1012.2
5253.9 kPa	1012.3
5256.1 kPa	1012.2
5266.1 kPa	1012.1
5282.2 kPa	1012.2
5294.5 kPa	1012.3
5310.3 kPa	1012.2
5338.3 kPa	1012.2
5338.4 kPa	1012.1
5368.9 kPa	1012.1
5399.8 kPa	1012.4
5401.2 kPa	1012.4
5439.1 kPa	1012.3
5471.1 kPa	1012.4
5509.5 kPa	1012.4
5540.4 kPa	1012.4
5575.9 kPa	1012.5
5603.9 kPa	1012.4
5635.2 kPa	1012.6
5666.5 kPa	1012.5
5693.6 kPa	1012.5
5727 kPa	1012.6
5754.8 kPa	1012.6
